The values that follow come from publication PMC6270011, “Design and Synthesis of Arylthiophene-2-Carbaldehydes via Suzuki-Miyaura Reactions and Their Biological Evaluation” (Molecules, 2013).

What is called IC50 is the point on the concentration scale where inhibition reaches its midpoint. As usually defined, the melting point is the temperature of the solid-liquid transition.

Each structure is given as a SMILES string. In brackets after ≈: the same amount, converted by molar mass. Like-named read-outs stand apart in the source and are kept apart here.

For data set [1], the system named is Staphylococcus aureus. Description: Antibacterial activity (disc / inhibition zone) against Staphylococcus aureus. The settings on record: for zone of inhibition at 25 µg/mL / zone of inhibition at 50 µg/mL: read-out: Inhibition zone, S. aureus.
Data set [2] relates to Pseudomonas aeruginosa. Description: Antibacterial activity (disc / inhibition zone) against Pseudomonas aeruginosa. The settings on record: read-out: Inhibition zone, P. aeruginosa.
Data set [3] deals with Gram-negative bacteria. Description: Antibacterial activity against Gram-negative bacteria (strain not named). In kind it is cell-based.
For data set [4], the system named is Shigella dysenteriae. In words: Antibacterial activity (disc / inhibition zone) against Shigella dysenteriae. To be noted: read-out: Inhibition zone, S. dysenteriae.
The test system of data set [5] is Bacillus subtilis. In words: Antibacterial activity (disc / inhibition zone) against Bacillus subtilis. To be noted: read-out: Inhibition zone, B. subtilis.
A short description of data set [6]: Nitric oxide (NO) scavenging assay. In kind it is biochemical. The source says:
Nitric oxide (NO) is a free radical causing inflammatory disorders and cancer in the human body when sodium nitroprusside decomposes to produce nitric oxide. The antioxidant activity of various thiophene derivatives has been reported in the literature and it has also been observed that compounds with high antioxidant activity served as antitumor agents. The newly synthesized compounds reacted directly with nitric oxide and inhibited nitrite formation in an excellent way.
The reaction mixtures comprising sample solution (2 µL), phosphate buffer (17 µL) and sodium nitroprusside (20 µL) were incubated at 37 °C for 2 h in well plates. Then Griess reagent (20 µL, 0.3% sulphanilic acid in glacial acetic acid + 0.1% naphthylethylenediamine (NED): equal volumes of both solutions mixed just before use) was added to each well plate and the mixture kept at room temperature for 20 min to develop the color. The absorbance was measured at 528 nm by using an ELISA reader. The results were processed using Gen 5 software. All the reactions were performed in triplicate. Positive control (containing known antioxidant) and control (containing all samples) were run in parallel. Negative control was used to calibrate the instrument. The % age antioxidant activity was determined by using the following formula: % antioxidant activity = [(Absorbance of control − absorbance of sample)/(Absorbance of control)] × 100

The test system of data set [7] is human red blood cells (erythrocytes). In kind it is cell-based. The settings on record: for Haemolytic activity, percentage of lysis (Average ± SD): human erythrocytes, 37 °C, 35 min. Here is the method:
Three mL of freshly obtained human blood was placed in heparinized tubes to avoid coagulation, gently mixed and poured into a sterile 15 mL Falcon tube and centrifuged for 5 min at 1,000 ×g. The supernatant was discarded and red blood cells were washed three times with chilled (4 °C) sterile isotonic phosphate buffer saline pH 7.4 (5 mL). Erythrocytes (10^8 cells/mL) were maintained for each assay by dilution with phosphate buffer saline. Erythrocytes were counted on a heamacytometer. Twenty µL of each compound was mixed with red blood cells suspension (180 μL) separately. The samples were incubated at 37 °C for 35 min. The samples were placed on ice for 5 min and then agitated at 1,000 ×g for 5 min. Supernatant (100 µL) were taken from each tube and diluted 10 times with chilled (4 °C) phosphate buffered saline. Triton X-100 (0.1% v/v) was taken as a positive control and PBS was negative control and then subjected to the same process. […] The percentage RBSs lyses for each sample was calculated.

Data set [8] concerns Salmonella typhi. In words: Antibacterial activity (disc / inhibition zone) against Salmonella typhi. To be noted: Salmonella enterica; for zone of inhibition at 25 µg/mL / zone of inhibition at 50 µg/mL: read-out: Inhibition zone, S. typhi.
Data set [9] relates to Escherichia coli. In words: Antibacterial activity (disc / inhibition zone) against Escherichia coli. The settings on record: for zone of inhibition at 25 µg/mL / zone of inhibition at 50 µg/mL: read-out: Inhibition zone, E.coli.
Data set [10] concerns the target urease enzyme (Canavalia ensiformis, UniProt P07374).
Setting [11] is: 25 µg/mL, read-out: % Activity at 25 µg (NO scavenging).
[12] abbreviates: 50 µg/mL, read-out: % Activity at 50 µg (NO scavenging).
[13] abbreviates: 100 µg/mL, read-out: % Activity at 100 µg (NO scavenging).

urease enzyme, sequence (P07374 whole entry, looked up): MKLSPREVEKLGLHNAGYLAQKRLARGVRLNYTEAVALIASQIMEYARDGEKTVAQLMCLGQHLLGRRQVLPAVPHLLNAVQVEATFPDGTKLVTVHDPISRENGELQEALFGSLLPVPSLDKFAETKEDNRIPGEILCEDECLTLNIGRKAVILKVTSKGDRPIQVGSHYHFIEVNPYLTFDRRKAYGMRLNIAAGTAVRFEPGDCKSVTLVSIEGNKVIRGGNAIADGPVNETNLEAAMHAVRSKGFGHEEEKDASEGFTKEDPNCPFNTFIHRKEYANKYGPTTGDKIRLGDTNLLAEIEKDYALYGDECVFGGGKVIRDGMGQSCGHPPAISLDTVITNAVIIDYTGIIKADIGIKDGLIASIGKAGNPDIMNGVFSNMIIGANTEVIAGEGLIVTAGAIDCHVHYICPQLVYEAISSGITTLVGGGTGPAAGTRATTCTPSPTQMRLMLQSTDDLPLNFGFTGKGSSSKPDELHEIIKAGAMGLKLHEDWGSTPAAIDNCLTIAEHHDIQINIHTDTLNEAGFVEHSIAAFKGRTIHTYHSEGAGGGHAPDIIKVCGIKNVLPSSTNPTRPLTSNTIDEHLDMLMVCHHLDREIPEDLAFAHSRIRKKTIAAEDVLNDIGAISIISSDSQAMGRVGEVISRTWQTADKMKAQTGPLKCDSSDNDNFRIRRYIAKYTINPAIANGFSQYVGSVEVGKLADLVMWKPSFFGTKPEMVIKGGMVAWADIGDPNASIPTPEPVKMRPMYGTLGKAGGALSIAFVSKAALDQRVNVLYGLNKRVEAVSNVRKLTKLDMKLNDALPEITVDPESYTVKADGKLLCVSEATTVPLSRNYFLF

With `Cc1cc(C)cc(-c2csc(C=O)c2)c1` [2g, 4-(3,5-Dimethylphenyl)thiophene-2-carbaldehyde], the melting point lay within 71 to 73 °C. Further, in [1], the zone of inhibition at 25 µg/mL turned out to be 27 ± 0.08 mm and the zone of inhibition at 50 µg/mL stood at 59 ± 0.44 mm. In data set [2], the zone of inhibition at 25 µg/mL amounted to 25 ± 0.06 mm and the zone of inhibition at 50 µg/mL was 56 ± 0.04 mm. In data set [3], this compound returned an IC50 of 45.2 mg/L (≈ 209 µM). In data set [4], the zone of inhibition at 25 µg/mL turned out to be 32 ± 0.01 mm and the zone of inhibition at 50 µg/mL worked out at 59 ± 0.44 mm. In data set [5], the zone of inhibition at 25 µg/mL was 36 ± 0.08 mm and the zone of inhibition at 50 µg/mL came to 56 ± 0.24 mm. The inhibition in data set [6] (setting [11]) came to 13 ± 0.002%. For the same compound, the inhibition in data set [6] (setting [12]) came out at 28 ± 0.007%. In [6] (setting [13]), the inhibition stood at 43 ± 0.002%. The “Haemolytic activity, percentage of lysis (Average ± SD)” value in [7] came out at 4.525 ± 0.075%. In data set [8], the zone of inhibition at 25 µg/mL is 32.2 ± 0.11 mm and the zone of inhibition at 50 µg/mL is 61 ± 0.16 mm. Moreover, in data set [9], the zone of inhibition at 25 µg/mL is 22.5 ± 0.11 mm and the zone of inhibition at 50 µg/mL was determined as 44.5 ± 0.19 mm.

`O=Cc1cc(-c2ccc(Cl)c(Cl)c2)cs1` [2h, 4-(3,4-Dichlorophenyl)thiophene-2-carbaldehyde] displayed a melting point of 158 to 160 °C. For the same compound, in data set [1], the zone of inhibition at 25 µg/mL is 39.4 ± 0.05 mm and the zone of inhibition at 50 µg/mL came to 59.4 ± 0.45 mm. Besides, in data set [2], the zone of inhibition at 25 µg/mL worked out at 40 ± 0.041 mm and the zone of inhibition at 50 µg/mL was 67 ± 0.021 mm. Also, in data set [4], the zone of inhibition at 25 µg/mL worked out at 29 ± 0.19 mm and the zone of inhibition at 50 µg/mL was 59.4 ± 0.45 mm. Also, in data set [5], the zone of inhibition at 25 µg/mL stood at 28 ± 0.03 mm and the zone of inhibition at 50 µg/mL stood at 58 ± 0.22 mm. Besides, the inhibition in [6] (setting [11]) is 13 ± 0.002%. The inhibition in [6] (setting [12]) is 20 ± 0.025%. In addition, the inhibition in [6] (setting [13]) was found to be 35 ± 0.077%. For the same compound, the “Haemolytic activity, percentage of lysis (Average ± SD)” value in data set [7] was determined as 3.487 ± 0.054%. In data set [8], the zone of inhibition at 25 µg/mL came to 30 ± 0.13 mm and the zone of inhibition at 50 µg/mL stood at 57 ± 0.01 mm. Besides, in [9], the zone of inhibition at 25 µg/mL worked out at 32 ± 0.03 mm and the zone of inhibition at 50 µg/mL is 60 ± 0.24 mm.

The compound `O=Cc1cc(-c2ccc(F)c(Cl)c2)cs1` [2i, 4-(3-Chloro-4-fluorophenyl)thiophene-2-carbaldehyde] showed a melting point of 108 to 110 °C. Further, in data set [1], the zone of inhibition at 25 µg/mL was 27.8 ± 0.12 mm and the zone of inhibition at 50 µg/mL was 58 ± 0.16 mm. Besides, in [2], the zone of inhibition at 25 µg/mL is 42 ± 0.04 mm and the zone of inhibition at 50 µg/mL was found to be 66 ± 0.01 mm. Besides, in data set [4], the zone of inhibition at 25 µg/mL was 43 ± 0.105 mm and the zone of inhibition at 50 µg/mL was 58 ± 0.16 mm. Besides, in [5], the zone of inhibition at 25 µg/mL came to 36.5 ± 0.04 mm and the zone of inhibition at 50 µg/mL worked out at 56 ± 0.5 mm. Besides, the “IC50 (NO scavenging)” value in data set [6] amounted to 46.1 mg/L (≈ 192 µM). For the same compound, the inhibition in data set [6] (setting [11]) is 12 ± 0.05%. The inhibition in data set [6] (setting [12]) amounted to 57 ± 0.0021%. In addition, in data set [6] (setting [13]), the inhibition was 72 ± 0.009%. In data set [7], the “Haemolytic activity, in words” value was “highest haemolytic action” and the “Haemolytic activity, percentage of lysis (Average ± SD)” value was found to be 9.779 ± 0.095%. In addition, in data set [8], the zone of inhibition at 25 µg/mL was 33 ± 0.25 mm and the zone of inhibition at 50 µg/mL amounted to 59.5 ± 0.25 mm. Moreover, in data set [9], the zone of inhibition at 25 µg/mL was 16 ± 0.043 mm and the zone of inhibition at 50 µg/mL amounted to 26 ± 0.023 mm.

`Cc1ccc(-c2csc(C=O)c2)s1` [2j, 5-Methyl-2,3-bisthiophene-5-carbaldehyde] showed a melting point of 218 to 220 °C. Besides, the IC50 in [1] (read-out: IC50 against Staphylococcus aureus) is 37.4 mg/L (≈ 180 µM). In addition, in data set [1], the zone of inhibition at 25 µg/mL stood at 35.2 ± 0.01 mm and the zone of inhibition at 50 µg/mL stood at 65 ± 0.09 mm. Also, in data set [2], the zone of inhibition at 25 µg/mL was 36 ± 0.16 mm and the zone of inhibition at 50 µg/mL was 69 ± 0.16 mm. Besides, in data set [4], the zone of inhibition at 25 µg/mL was determined as 35 ± 0.2 mm and the zone of inhibition at 50 µg/mL was 65 ± 0.09 mm. For the same compound, in data set [5], the zone of inhibition at 25 µg/mL worked out at 27.1 ± 0.01 mm and the zone of inhibition at 50 µg/mL stood at 60 ± 0.05 mm. The “IC50 (NO scavenging)” value in data set [6] came out at 49.3 mg/L (≈ 237 µM). Also, in data set [6] (setting [11]), the inhibition was 15 ± 0.021%. Moreover, in data set [6] (setting [12]), the inhibition stood at 50 ± 0.024%. For the same compound, the inhibition in data set [6] (setting [13]) worked out at 65 ± 0.013%. For the same compound, the “Haemolytic activity, percentage of lysis (Average ± SD)” value in data set [7] was 4.135 ± 0.095%. In addition, the IC50 in data set [8] (read-out: IC50 against Salmonella typhi) is 37.4 mg/L (≈ 180 µM). Also, in data set [8], the zone of inhibition at 25 µg/mL was 29 ± 0.1 mm and the zone of inhibition at 50 µg/mL was determined as 63 ± 0.1 mm. Besides, in data set [9] (read-out: IC50 against Escherichia coli), the IC50 came out at 40 mg/L (≈ 192 µM). In data set [9], the zone of inhibition at 25 µg/mL was 26 ± 0.03 mm and the zone of inhibition at 50 µg/mL was 66 ± 0.43 mm.

Regarding `NC(N)=S` [Thiourea, thiourea, reference compound], the “IC50 (urease inhibition)” value in [10] was determined as 27.5 mg/L (≈ 361 µM). Also, the “%age Activity at 25 μg (urease inhibition)” value in data set [10] (25 µg/mL) turned out to be 47 ± 0.007%. Moreover, in data set [10] (50 µg/mL), the “%age Activity at 50 μg (urease inhibition)” value came out at 77 ± 0.015%.
